Data published in EP4772497A1, “POLYMORPHS OF NITROGEN-CONTAINING HETEROCYCLIC COMPOUNDS, AND USES THEREOF” (BNH Research Co., Ltd., priority 2023, dated 2025).

How the values were obtained:
[1] = Hygroscopicity by dynamic vapor sorption (DVS); format: physicochemical
Protocol: Instrument model: SMS DVS Advantage Dynamic Vapor Sorption System Test method: A sample (10 to 15 mg) is taken and placed on a DVS sample pan, and measurement is performed. Detailed DVS parameters are as follows. Temperature: 25°C Equilibrium dm/dt = 0.002%/min: (minimum: 60 min, maximum: 240 min) Relative humidity (RH (%)) measurement gradient: 10% Relative Humidity (RH (%)) measurement gradient cycle: 40-0-95-0-40% The following description provides the criteria for determining hygroscopicity: [Table 6]
The moisture adsorption and desorption behavior of crystalline form C was investigated by the DVS test of Experimental Method 5. XRPD was performed to confirm any change in form after the DVS test.

APP/PS1 mice = test: TC synaptic potency and GABA/AMPA ratio in the sensory cerebral cortex after dosing; format: in vivo; conditions: form C 1 mg/kg orally, aducanumab 5 mg/kg i.v.
Protocol: Using APP/PS1 mice (15 months old, Taconic Biosciences), an animal model of Alzheimer's disease, the efficacy of crystalline form C and aducanumab (Creative Biolabs) was evaluated when administered alone or in combination, respectively. A control group and four experimental groups were prepared as follows (see Table 14).
For the control antibody, an isotype antibody was administered intravenously, and for the vehicle, 200 µL of a mixed solution of DMSO (10):PEG400 (44):saline (55) was administered orally. Five mice were used for each treatment group.
Aducanumab was administered at a dose of 5 mg/kg, and the control antibody, which is an inactivated form of aducanumab, was administered at a dose of 5 mg/kg. For the intravenous administration, a total of four injections were administered into the tail vein on the starting day of the experiment and at one-week intervals thereafter.
For oral administration, 1 mg/kg of the compound of the present disclosure (crystalline form C, BnH-015B) or a vehicle was administered orally once daily for about 11 to 13 days, starting about 2 weeks after the initiation of the experiment.
Meanwhile, the efficacy of the compound against Alzheimer's disease was evaluated by measuring the potency and the GABA/AMPA ratio in the sensory cerebral cortex. […]

C[C@@H]1CC[C@H](C(=O)O)CN1C(=O)Cc1ccc(F)cc1Cl [Crystalline form C, (3S,6R)-1-(2-(2-chloro-4-fluorophenyl)acetyl)-6-methylpiperidine-3-carboxylic acid]
Classification of hygroscopicity ([1]; DVS, 25°C): non-hygroscopic | Weight change (%) in 1st adsorption ([1]; Relative humidity 0% at 25°C): 0% | Weight change (%) in 1st desorption ([1]; Relative humidity 0% at 25°C): 0% | Weight change (%) in 2nd adsorption ([1]; Relative humidity 0% at 25°C): 0% | Weight change (%) in 2nd desorption ([1]; Relative humidity 0% at 25°C): 0% | Weight change (%) in 1st adsorption ([1]; Relative humidity 10% at 25°C): 0% | Weight change (%) in 1st desorption ([1]; Relative humidity 10% at 25°C): 0% | Weight change (%) in 2nd adsorption ([1]; Relative humidity 10% at 25°C): 0% | Weight change (%) in 2nd desorption ([1]; Relative humidity 10% at 25°C): 0% | Weight change (%) in 1st adsorption ([1]; Relative humidity 20% at 25°C): 0% | Weight change (%) in 1st desorption ([1]; Relative humidity 20% at 25°C): 0% | Weight change (%) in 2nd adsorption ([1]; Relative humidity 20% at 25°C): 0% | Weight change (%) in 2nd desorption ([1]; Relative humidity 20% at 25°C): 0% | Weight change (%) in 1st adsorption ([1]; Relative humidity 30% at 25°C): 0% | Weight change (%) in 1st desorption ([1]; Relative humidity 30% at 25°C): 0% | Weight change (%) in 2nd adsorption ([1]; Relative humidity 30% at 25°C): 0% | Weight change (%) in 2nd desorption ([1]; Relative humidity 30% at 25°C): 0% | Weight change (%) in 1st adsorption ([1]; Relative humidity 40% at 25°C): 0% | Weight change (%) in 1st desorption ([1]; Relative humidity 40% at 25°C): 0% | Weight change (%) in 2nd adsorption ([1]; Relative humidity 40% at 25°C): 0% | Weight change (%) in 2nd desorption ([1]; Relative humidity 40% at 25°C): 0.1% | Weight change (%) in 1st adsorption ([1]; Relative humidity 50% at 25°C): 0.1% | Weight change (%) in 2nd desorption ([1]; Relative humidity 50% at 25°C): 0.1% | Weight change (%) in 1st adsorption ([1]; Relative humidity 60% at 25°C): 0.1% | Weight change (%) in 2nd desorption ([1]; Relative humidity 60% at 25°C): 0.1% | Weight change (%) in 1st adsorption ([1]; Relative humidity 70% at 25°C): 0.1% | Weight change (%) in 2nd desorption ([1]; Relative humidity 70% at 25°C): 0.1% | Weight change (%) in 1st adsorption ([1]; Relative humidity 80% at 25°C): 0.1% | Weight change (%) in 2nd desorption ([1]; Relative humidity 80% at 25°C): 0.1% | Weight change (%) in 1st adsorption ([1]; Relative humidity 90% at 25°C): 0.1% | Weight change (%) in 2nd desorption ([1]; Relative humidity 90% at 25°C): 0.1% | Weight change (%) in 1st adsorption ([1]; Relative humidity 95% at 25°C): 0.1% | Weight change (%) in 2nd desorption ([1]; Relative humidity 95% at 25°C): 0.1% | crystalline form after the DVS test (XRPD) ([1]; sample obtained after the DVS test): still exhibits crystalline pattern C | moisture uptake ([1]; up to 95% RH, 25°C): less than 0.2% | balance of excitation/inhibition (GABA/AMPA ratio) (APP/PS1 mice): maintaining the balance of excitation/inhibition | excitatory TC synaptic potency (TC potency) (APP/PS1 mice): increased excitatory TC synaptic potency
